# Assay: Inhibition of Enterovirus 71 Shenzhen/120F1/09 capsid infected in human RD cells assessed as reduction in virus-induced cell death after 72 hrs by CCK-8 assay
row,Compound,EC50
1,CCO/N=C(\CC)c1ccc(OCCCCCN2CCN(c3ccnc(N)c3)S2(=O)=O)cc1,554 nM
2,O=S1(=O)N(CCCCCOc2ccc(-c3ccc(Cl)cc3)cc2)CCN1c1ccncc1,110 nM
3,O=C1N(CCCCc2cc3cc(-c4ccc(Cl)cc4)ccc3o2)CCN1c1ccncc1,1100 nM
4,O=C1CN(CCCCCOc2ccc(-c3ccc(Cl)cc3)cc2)CCN1c1ccncc1,1200 nM
5,CCO/N=C(\C)c1ccc(OCCCCCN2CCN(c3ccnc(N)c3)S2(=O)=O)cc1,600 nM
6,O=C1CN(c2ccncc2)CCN1CCCCCOc1ccc(-c2ccc(Cl)cc2)cc1,180 nM
7,NC(=O)c1ncn([C@@H]2O[C@H](CO)[C@@H](O)[C@H]2O)n1 [Tribavirin],> 100000 nM
8,CCO/N=C1\CCCc2cc(OCCCCCN3CCN(c4ccnc(N)c4)S3(=O)=O)ccc21,309 nM
9,Nc1cc(N2CCN(CCCCCOc3ccc(-c4ccc(Cl)cc4)cc3)S2(=O)=O)ccn1,12 nM
10,CCO/N=C1\CCc2cc(OCCCCCN3CCN(c4ccnc(N)c4)S3(=O)=O)ccc21,4 nM
11,S=C1N(CCCCCOc2ccc(-c3ccc(Cl)cc3)cc2)CCN1c1ccncc1,2800 nM
12,CCc1noc2cc(OCCCCCN3CCN(c4ccnc(N)c4)S3(=O)=O)ccc12,352 nM
13,O=C1N(CCCCC2CCc3cc(-c4ccc(Cl)cc4)ccc3O2)CCN1c1ccncc1 (configuration not stated),48 nM
14,O=C1N(CCCCCOc2ccc(-c3ccc(Cl)cc3)cc2)CCN1c1ccncc1 [1-[5-(4''-Chloro-biphenyl-4-yloxy)-pentyl]-3-pyridin-4-yl-imidazolidin-2-one],91 nM
15,O=C1CC(CCCCN2CCN(c3ccncc3)C2=O)Oc2ccc(-c3ccc(Cl)cc3)cc21 (configuration not stated),540 nM
16,CCn1ccc2cc(OCCCCCN3CCN(c4ccnc(N)c4)S3(=O)=O)ccc21,> 1000 nM
17,CCn1ncc2cc(OCCCCCN3CCN(c4ccnc(N)c4)S3(=O)=O)ccc21,> 1000 nM
18,CCO/N=C/c1ccc(OCCC(C)CCN2CCN(c3ccnc(N)c3)C2=O)cc1 (configuration not stated),0.03 nM
19,CCO/N=C/c1ccc(OCCCCCN2CCN(c3ccnc(N)c3)S2(=O)=O)cc1,0.9 nM
20,O=C1N(CCCCc2nc3cc(-c4ccc(Cl)cc4)ccc3o2)CCN1c1ccncc1,1100 nM
21,"Cc1cc(CCCOc2c(C)cc(-c3noc(C(F)(F)F)n3)cc2C)on1 [3-(3,5-dimethyl-4-(3-(3-methylisoxazol-5-yl)propoxy)phenyl)-5-(trifluoromethyl)-1,2,4-oxadiazole]",> 100000 nM
22,O=C1C(=O)N(c2ccncc2)CCN1CCCCCOc1ccc(-c2ccc(Cl)cc2)cc1,> 1000 nM

# From BindingDB's records for doi:10.1021/acsmedchemlett.7b00188 (Wuxi Apptec (Shanghai), 2017)
